Read-outs that look alike come from different tables or passages of the source.
How the values were obtained:
[1] = tested on: Aedes aegypti; test: Double (dual) chamber assay, spatial repellence; assay type: in vivo
Description: FIG. 1: Percentage of mosquitoes Aedes aegypti escaping over time the chamber treated with a stimulus. The four stimuli were the solvent propan-1,2-diol (grey triangles and dotted line), N,N-diethyl-meta-toluamide (medium grey diamonds), 2,6-dimethoxy-4-methylphenol (light gray squares) and 1,2,3-trimethoxy-5-propylbenzene (black circles). Each stimulus was injected during 40 min thanks to a forced evaporation system in the treated chamber containing the mosquitoes, causing their movement toward the untreated refuge chamber. Each point represents the mean number of mosquitoes in the untreated chamber (n=57, 6, 4 and 4 respectively)±SD at 10 min intervals.
The goal of this assay was to reproduce at a smaller scale the validation test for spatial repellent as described in WHO (2013; ISBN 978 92 4 150502 4).
The assay consists of a transparent cage (1200×755×700 mm; ˜0.63 m^3) covered by white paper. This cage is divided in two chambers of equal dimensions by a plasticized paper wall with square opening (200×200 mm) situated in the middle of the wall. At the beginning of the experiment, about 40 two-weeks old female Aedes aegypti mosquitoes are placed in the right chambers. Once the mosquitoes are settled inside this chamber (>5 min), the door between the chambers is opened. Then the stimulus is introduced into the mosquito chamber through a L-shape Teflon tube (40 mm) placed in the middle of the right Plexiglas wall. The stimulus is dispensed thanks to a Forced Evaporation System (Chappuis et al, 2015, DOI: 10.1021/acs.est.5b00692) at a rate of 0.1 mL/min in a nitrogen flow of 1 L/min, blended in a humid air flow of 9L/min before being carried to the L-shape Teflon tube. An air sucking system (˜150 L/min) is placed above the wall opening, between the two chambers (100 mm Ø), preventing the untreated chamber from being contaminated by the stimulus and limiting the stimulus accumulation in the treated chamber. […] Ten, 20, 30 and 40 minutes after the start of the stimulus injection, the number of mosquitoes that have moved to the untreated chamber is manually counted.

[2] = tested on: Anopheles gambiae; test: Arm-in-cage test on human volunteers over time; assay type: in vivo; conditions: for Complete Protection Time (no confirmed landing) / Number of mosquitoes landing on the treated arm (test): arm treated with 20%
[3] = tested on: Aedes aegypti; test: Warm Body assay, mosquito landings on treated warm body; assay type: in vivo
Method in brief: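 Compounds in ethanol (100 μL, various concentrations) were applied to a sandblasted glass dish covering the warm body (28.3 cm^2), with ethanol as control. Landings were counted automatically from 30 non-blood-fed, sugar-fed Aedes aegypti Rockefeller females aged 5–10 days, under 150 lux.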

[4] = tested on: Anopheles gambiae; test: as above; assay type: in vivo; conditions: for pest or weed control at 3.2 µg/mL: 0.0032 mg/mL (Table 5); for pest or weed control at 80 µg/mL: 0.08 mg/mL (Table 5); for pest or weed control at 2000 µg/mL: 2 mg/mL (Table 5); for repellence (no mosquito landing on the attractive stimulus): with at least one of the two concentrations 0.447% & 1% (Table 4)
Description: Anopheles gambiae is also a model organism as it is anthropophilic and transmits malaria.
The controlling effect according to the present invention was assessed using an adapted Warm Body assay as defined in Kröber T, Kessler S, Frei J, Bourquin M, Guerin P M. 2010. J Am Mosq Control Assoc. 26: 381-386. In this in-vitro assay the number of mosquito landing on a warm body, simulating an attractive host treated with the tested stimuli, was measured in order to assess the repellence effect.
On the sandblasted glass Petri dish covering the warm body (28.3 cm^2), 100 μL of the compounds diluted at different concentrations in ethanol was applied. The number of mosquito landing on the warm body was counted for each stimulus and pure ethanol (solvent) as control.

[5] = tested on: Ixodes ricinus; test: Warm Plate assay, tick repellence; conditions: Ixodes ricinus, read-out: Percentage of repellence of ticks Ixodes ricinus on the warm plate
[6] = tested on: Aedes aegypti; test: Free flying room assay, spatial repellence with human volunteer; assay type: in vivo; conditions: for mosquitoes landed on the volunteer: in 3 minutes, negative control 60.7±2.5 landings; for Spatial Repellence / Protective efficacy: large scale assay; for Spatial Repellence: 25 m3 chambers, compound released in the air; for Protective efficacy: probing on volunteer forearm, 3 minutes; for mosquito entered the treated chamber: negative control 82.5±3.7%
Description: The goal of this large-scale test is to assess the propensity of stimulus released in the air to protect a human volunteer by limiting the mosquito presence in a protected space and the number of landing/biting. The protocol used to carry the test is following the guidelines indicated in WHO (2013; ISBN 978 92 4 150502 4).
A group of 50 Aedes aegypti female mosquitoes were introduced in one chamber of 25 m^3 one hour before the test started. The product was applied in the other chamber of 25 m^3 (“treated chamber”) and let evaporate for 30 minutes. The test started when the window separating the two chambers was opened in a tilt-on manner for another 30 minutes. Twenty minutes after the window was opened, a volunteer entered in the “treated chamber” and sat down for 10 minutes, exposing the forearm for the last 3 minutes to determine the probing activity (Protective Efficacy). Then, the connecting window was closed and the number of mosquitoes in each of the chambers was counted (Spatial Repellency). The negative controls were carried out following the same procedure but without the application of the stimulus. Three replicates of each treatment and of the negative control were conducted with three different volunteers.

[7] = Aedes aegypti, 0.016 mg/mL (Table 3), read-out: Percentage of repellence of mosquitoes Aedes aegypti landing on the warm body
[8] = Aedes aegypti, 0.4 mg/mL (Table 3), read-out: Percentage of repellence of mosquitoes Aedes aegypti landing on the warm body
[9] = Aedes aegypti, 10 mg/mL (Table 3), read-out: Percentage of repellence of mosquitoes Aedes aegypti landing on the warm body
[10] = Anopheles gambiae, read-out: Percentage of repellence of mosquitoes Anopheles gambiae landing on the warm body
[11] = Anopheles gambiae, 0.178 mg/mL (Table 4), read-out: Percentage of repellence of mosquitoes Anopheles gambiae landing on the warm body
[12] = Anopheles gambiae, 0.178 mg/mL (Table 5), read-out: Percentage of repellence of mosquitoes Anopheles gambiae landing on the warm body
[13] = Anopheles gambiae, 0.267 mg/mL (Table 4), read-out: Percentage of repellence of mosquitoes Anopheles gambiae landing on the warm body
[14] = Anopheles gambiae, 0.267 mg/mL (Table 5), read-out: Percentage of repellence of mosquitoes Anopheles gambiae landing on the warm body
[15] = Anopheles gambiae, 0.4 mg/mL (Table 4), read-out: Percentage of repellence of mosquitoes Anopheles gambiae landing on the warm body
[16] = Anopheles gambiae, 0.4 mg/mL (Table 5), read-out: Percentage of repellence of mosquitoes Anopheles gambiae landing on the warm body
[17] = Anopheles gambiae, 4.47 mg/mL (Table 4), read-out: Percentage of repellence of mosquitoes Anopheles gambiae landing on the warm body
[18] = Anopheles gambiae, 4.47 mg/mL (Table 5), read-out: Percentage of repellence of mosquitoes Anopheles gambiae landing on the warm body
[19] = Anopheles gambiae, 10 mg/mL (Table 4), read-out: Percentage of repellence of mosquitoes Anopheles gambiae landing on the warm body
[20] = Anopheles gambiae, 10 mg/mL (Table 5), read-out: Percentage of repellence of mosquitoes Anopheles gambiae landing on the warm body

Row | SMILES | Complete Protection Time (no confirmed landing) [2] [h] | pest or weed control at 16 µg/mL [3, 7] [%] | pest or weed control at 400 µg/mL [3, 8] [%] | pest or weed control at 10000 µg/mL [3, 9] [%] | pest or weed control at 3.2 µg/mL [4, 10] [%] | pest or weed control at 80 µg/mL [4, 10] [%] | pest or weed control at 178 µg/mL [4, 11] [%] | pest or weed control at 178 µg/mL [4, 12] [%] | pest or weed control at 267 µg/mL [4, 13] [%] | pest or weed control at 267 µg/mL [4, 14] [%] | pest or weed control at 400 µg/mL [4, 15] [%] | pest or weed control at 400 µg/mL [4, 16] [%] | pest or weed control at 2000 µg/mL [4, 10] [%] | pest or weed control at 4470 µg/mL [4, 17] [%] | pest or weed control at 4470 µg/mL [4, 18] [%] | pest or weed control at 10000 µg/mL [4, 19] [%] | pest or weed control at 10000 µg/mL [4, 20] [%] | repellence (no mosquito landing on the attractive stimulus) [4] [%] | mosquitoes landed on the volunteer [6] | Spatial Repellence [6] [%] | also measured
1 | CCN(CC)C(=O)c1cccc(C)c1 [DEET, N,N-diethyl-meta-toluamide, reference compound] | – | – | – | – | – | – | – | – | – | – | – | – | – | – | – | – | – | – | – | – | movement of mosquitoes towards the refuge chamber ([1]; after 40 min of injection in the treated chamber): 16.2%±7.3%
2 | CCCCN(CCC(=O)OCC)C(C)=O [IR3535, ethyl butylacetylaminopropionate, reference compound] | 0.17 | – | – | – | – | – | – | – | – | – | – | – | – | – | – | – | – | – | – | – | –
3 | Cc1ccc2c(c1)OCC(=O)CO2 [compound 1228, 7-methyl-1,5-benzodioxepin-3-one] | 1.33 | 54 | 74 | 100 | 0 | 0 | 48 | 48 | 85 | 71 | 65 | 66 | 92 | 92 | 92 | 100 | 100 | 100 | – | – | pest or weed control at 1 % ([3]; Aedes aegypti, highest tested concentration, 1% (Table 3), read-out: repellence): > 90%; pest or weed control at 0.0016 % ([3]; Aedes aegypti, lowest concentration of 0.0016% (Table 3), read-out: reduce the number of mosquito landings): > 50%; mosquito landing within the two minutes of experiments ([3]; highest tested concentration, 1% (Table 3)): protect the attractive stimulus for any mosquito landing; pest or weed control at 598 µg/mL ([4]; Anopheles gambiae, 0.598 mg/mL (Table 5), read-out: Percentage of repellence of mosquitoes Anopheles gambiae landing on the warm body): 69%; Number of mosquitoes landing on the treated arm (test) ([2]; 30 min post-application): 0; Number of mosquitoes landing on the treated arm (test) ([2]; 1 h post-application): 0; Number of mosquitoes landing on the treated arm (test) ([2]; 2 h post-application): 3.0 ± 1.8; Number of mosquitoes landing on the treated arm (test) ([2]; 3 h post-application): 7.5 ± 1.1; protection ([2]; at 3 h, on two volunteers): 79.64%
4 | COc1cc(C)cc(OC)c1O [compound 1537, 2,6-dimethoxy-4-methylphenol] | – | – | – | – | – | – | – | – | – | – | – | – | – | – | – | – | – | – | 14.7±2.5 | 64.3 ± 3.4 | pest or weed control at 3.2 µg/mL ([3]; Aedes aegypti, 0.0032 mg/mL (Table 2), read-out: Percentage of repellence of mosquitoes Aedes aegypti landing on the warm body): 0%; pest or weed control at 16 µg/mL ([3]; Aedes aegypti, 0.016 mg/mL (Table 2), read-out: Percentage of repellence of mosquitoes Aedes aegypti landing on the warm body): 35%; pest or weed control at 35.7 µg/mL ([3]; Aedes aegypti, 0.0357 mg/mL (Table 2), read-out: Percentage of repellence of mosquitoes Aedes aegypti landing on the warm body): 36%; pest or weed control at 80 µg/mL ([3]; Aedes aegypti, 0.08 mg/mL (Table 2), read-out: Percentage of repellence of mosquitoes Aedes aegypti landing on the warm body): 40%; pest or weed control at 178 µg/mL ([3]; Aedes aegypti, 0.178 mg/mL (Table 2), read-out: Percentage of repellence of mosquitoes Aedes aegypti landing on the warm body): 62%; pest or weed control at 400 µg/mL ([3]; Aedes aegypti, 0.4 mg/mL (Table 2), read-out: Percentage of repellence of mosquitoes Aedes aegypti landing on the warm body): 89%; pest or weed control at 890 µg/mL ([3]; Aedes aegypti, 0.89 mg/mL (Table 2), read-out: Percentage of repellence of mosquitoes Aedes aegypti landing on the warm body): 84%; pest or weed control at 2000 µg/mL ([3]; Aedes aegypti, 2 mg/mL (Table 2), read-out: Percentage of repellence of mosquitoes Aedes aegypti landing on the warm body): 100%; pest or weed control at 10000 µg/mL ([3]; Aedes aegypti, 10 mg/mL (Table 2), read-out: Percentage of repellence of mosquitoes Aedes aegypti landing on the warm body): 100%; pest or weed control at 400 µg/mL [5]: 16.7%; pest or weed control at 2000 µg/mL [5]: 58.3%; pest or weed control at 10000 µg/mL [5]: 72.7%; Protective efficacy [6]: 75.8 ± 3.9%; mosquito entered the treated chamber [6]: 29.5±2.8%; plateau of mosquitoes moved to the untreated chamber ([1]; after 30 min of injection): ~42%
5 | COc1cc(C)cc(OC)c1OC [compound 1967, 3,4,5-trimethoxytoluene] | – | 0 | 12 | 81 | 0 | 1 | 65 | 59 | 78 | 82 | 84 | 71 | 100 | 100 | 100 | 100 | 100 | 100 | 22.3±3.2 | 47.3 ± 3.8 | pest or weed control at 16 µg/mL ([4]; Anopheles gambiae, 0.016 mg/mL (Table 5), read-out: Percentage of repellence of mosquitoes Anopheles gambiae landing on the warm body): 0%; repellence ([4]; concentration ≥0.0178% (Table 5)): > 50%; landing ([4]; concentrations ≥0.2% (Table 5)): no landing at all; percentage of repellence ([4]; lowest concentration tested, 0.0178% (Table 4)): above 60%; Protective efficacy [6]: 63.1 ± 5.5%; mosquito entered the treated chamber [6]: 43.5±3.2%
